This passage reports IC50 results from PubChem BioAssay AID1985 (Southern Research Specialized Biocontainment Screening …, 2009).

pIC50: −log10 of the molar value. Values joined by “and” are separate entries in the source; they are usually repeats but may differ in a detail not shown here. Equal values may be shown once. Where only a bound is given, the exact number is not on record here.

The subject of the test is S. Typhi PhoP-promoter GFP reporter, fluorescence, 4 h. In words: modified counter assay using GFP fluorescence, PhoP regulon inhibitor project, dose response (AID 1985).

In general, pIC50 refers to the negative decadic logarithm of the IC50, by convention in mol/L. As to `Cc1cc(NS(=O)(=O)c2ccc(NC(=S)NC(=O)c3cccnc3)cc2)no1`, the negative-log IC50 (pIC50) was 3.90.

Regarding `CCC(O)(CC)C(=O)N/N=C/c1cc(Br)cc(Br)c1O`, the pIC50 is 4.22. With `NC(N)=N/N=C/c1ccc(OCc2ccc(Cl)cc2Cl)cc1` the figure was 4.77; with `Nc1nnc(-c2cccc(Cl)c2Cl)c(N)n1`, 4.48; with `Cc1ccc2c(c1)c1c(n2CC(O)CNC2CCCCC2)CCCC1` (centres undefined), 3.87. The same measure for `O=c1[nH]c2ccccc2n2c(=S)[nH]nc12`: 4.16; for `O=C(C[n+]1cc(-c2ccccc2)n2c1CCC2)Nc1nc(-c2ccc(F)cc2)cs1`: 3.85; for `CCCCCCCNC(=O)C1(CC2CC(c3ccc(Cl)cc3)=NO2)CCNCC1` (centres undefined): 4.41. Regarding `CCN1/C(=C/C(C)=C/c2sc3ccccc3[n+]2CC)Sc2ccccc21`, the pIC50 is 4.90. The same measure for `O=C(N/N=C/c1ccc([N+](=O)[O-])s1)c1cccnc1`: 4.64; for `O=C(/C=C/c1ccco1)NC(=S)NNC(=O)c1ccco1`: 3.96. With `O=C(c1cnn(C(=O)COc2ccccc2F)c1)c1cc(F)ccc1O` the figure was 4.08; with `Cc1ccc(C(C[N+](=O)[O-])Sc2ccc(N)cc2)cc1` (centres undefined), 4.53. On to `O=C(/C=C/c1cc(Br)ccc1O)c1ccco1`, for which the pIC50 is 4.17.

Take `COc1ccc(/C=C/c2cc[n+](C(=O)Cc3ccccc3)cc2)cc1`: the pIC50 was 3.97.

For `COc1cccc(/C=N/NC(=O)C(=O)N2CCCC2)c1O`, the pIC50 was 3.99. With `CNC(=S)N1CCN(c2c(F)cc3c(=O)c(C(=O)O)cn(C4CC4)c3c2OC)CC1C` (centres undefined) the figure was 5.07; with `O=C(Cn1nc(CNc2ccc(Br)cc2)[n+]2c1CCCCC2)c1ccc([N+](=O)[O-])cc1`, 4.10. With `O=C1c2cccc3cccc(c23)C(=O)C1(O)O` the figure was 4.54. With `O=C(Nc1ccc(Cl)cc1)c1cccs1`, the pIC50 was 3.98.

As for `OCCNc1nc(Nc2ccc(Br)cc2)nc2ccccc12`, the pIC50 is 4.72. As to `OCCCNc1c2ccccc2nc2ccccc12`, the pIC50 was 3.87.

In the case of `O=c1[nH]cc(N=Cc2cc([N+](=O)[O-])ccc2O)c(=O)[nH]1`, the negative-log IC50 (pIC50) was 4.40. The same measure for `C[C@H]1COc2c(N3CCN(C)CC3)c(F)cc3c(=O)c(C(=O)O)cn1c23`: over 6.64; for `COc1c(N2CCN(C(=S)NC3CC4CCC3C4)C(C)C2)c(F)cc2c(=O)c(C(=O)O)cn(C3CC3)c12` (centres undefined): 5.95. As to `CN1CCN(c2c(F)cc3c(=O)c(C(=O)O)cn4c3c2SCC4)CC1`, the pIC50 was 5.50 and 5.46.

For `CNCC[C@H](Oc1cccc2ccccc12)c1cccs1`, the negative-log IC50 (pIC50) is 3.98.

For the molecule `CCOc1ccc(OCCSc2nc3ccccc3[nH]2)cc1`, the pIC50 was 3.98. The same measure for `O=C(CSc1nc2ccccc2s1)N/N=C/c1cc([N+](=O)[O-])ccc1O`: 4.36. In the case of `O=c1[nH]c(-c2ccccn2)nc(C(F)(F)F)c1Br`, the pIC50 is 4.18.

With `CN1CCN(c2cc3c(cc2F)c(=O)c(C(=O)O)cn3CCF)CC1`, the negative logarithm of the IC50 (pIC50) is 6.35. Consider `CC(C)Cc1c(O)nc(SCC(=O)Nc2ccc3c(c2)CCC3)[nH]c1=O`, for which the pIC50 is 4.02. The same measure for `COc1cc(CNCCc2c[nH]c3ccccc23)ccc1OCc1ccc(F)cc1`: 4.08. The same measure for `CCn1cc(C(=O)NCc2ccc3c(c2)OCO3)c(=O)c2cc(F)c(N3CCN(C(=O)c4ccco4)CC3)cc21`: 3.97; for `O=C(Oc1ccc[nH]c1=O)c1cc([N+](=O)[O-])cc([N+](=O)[O-])c1`: 4.34; for `Cc1ccc(N/C(=C\C(=O)c2ccccc2)C(=O)O)cc1`: 4.76. For `O=C(CN1CC(c2ccccc2)CC1=O)N/N=C/c1cc(Br)ccc1O` (centres undefined), the pIC50 was 4.33. On to `CCn1cc(C(=O)O)c(=O)c2cc3c(cc21)OCO3`, for which the negative-log IC50 (pIC50) is 4.28.

Regarding `CN1CCN(C2Cc3cc(Cl)ccc3Sc3cc(F)ccc32)CC1` (centres undefined), the pIC50 was 4.43.

Regarding `CSc1ccc2c(c1)C(N1CCN(C)CC1)Cc1ccc(F)cc1S2` (centres undefined), the pIC50 was 4.29. The same measure for `Cc1cc2nc(C3CCN(CC4COc5ccccc5O4)CC3)[nH]c2cc1C` (centres undefined): 4.82; for `CCCCOc1ccc(CN=C(N)N)cc1Cl`: 3.99; for `O=C(CSc1ccccn1)N/N=C/c1cc([N+](=O)[O-])ccc1O`: 4.45. For `O=C(N/N=C/c1ccc([N+](=O)[O-])o1)c1ccc(O)cc1`, the negative-log IC50 (pIC50) is 4.74. Regarding `O=C(NCCCN1CCN(c2ccc(F)cc2)CC1)Nc1ccc([N+](=O)[O-])cc1`, the pIC50 was 3.93. Turning to `CCn1cc(C(=O)O)c(=O)c2cc(F)c(N3CCN(C(=S)Nc4ccc(OC)cc4)CC3)cc21`, the negative logarithm of the IC50 (pIC50) was 5.25. Consider `Cc1ccc(-c2csc(N=C(N)N)n2)c(C)c1`, for which the pIC50 is 4.19. The same measure for `CCCCCCCCC[n+]1cccc2c3ccccc3ccc21`: 4.57; for `COc1ccc(CNc2ncnc3c2[nH]c2ccccc23)cc1`: 4.23. The same measure for `Clc1ccc2[nH]c3c(c2c1)CCc1cn[nH]c1-3`: 4.13; for `C#CCOCCOCCOCCNc1nc(N2CCN(C(=O)CCCCCCCCCCNC(=O)[C@H](CCCCN)n3cc(C[C@@H](C)CC)nn3)CC2)nc(N2CCN(C(=O)CCCCCCCCCCNC(=O)[C@@H]([C@H](C)O)n3cc(C)nn3)CC2)n1`: 3.86. The same measure for `CCOC(=O)c1c(-c2ccc(-c3ccccc3)cc2)csc1NC(=O)CNCCN(C)C`: 4.09. For `Nc1nc(N)c(Cc2ccc(Cl)cc2Cl)c(N)n1`, the negative logarithm of the IC50 (pIC50) is 3.99. The same measure for `O=C(N/N=C/c1cc([N+](=O)[O-])ccc1O)c1cccc2cc[nH]c12`: 4.04. With `O=S(=O)(Nc1ncccn1)c1ccc(NC(=S)Nc2cccc(Cl)c2)cc1` the figure was 4.02. As for `CCC(C)(C)c1ccc(OCCCC[n+]2ccccc2)c(C(C)(C)CC)c1`, the pIC50 was 4.17. The same measure for `CC(C)(C)CC(C)(C)c1ccc(OCCOCC[N+](C)(C)Cc2ccccc2)cc1`: 4.46. The same measure for `CCOC(=O)N1CCN(Cc2cc(Cl)c3cccnc3c2O)CC1`: 4.42; for `O=C(CCc1ccccc1)NNC(=O)c1ccccn1`: 4.00; for `O[C@@H](c1cc(C(F)(F)F)nc2c(C(F)(F)F)cccc12)[C@H]1CCCCN1`: 4.04. The same measure for `O=C1NCCN1c1ncc([N+](=O)[O-])s1`: 4.80; for `FC(F)Oc1ccc(NC(=S)NCc2nc3ccccc3[nH]2)cc1`: 4.47; for `COc1ccc(C(=O)NC(=S)NNC(=O)c2cnccn2)cc1`: 4.09. As for `Nc1ncncc1-c1ccc(Cl)cc1`, the negative-log IC50 (pIC50) was 3.88.

With `COc1ccc2[nH]c3c(C)c4ccncc4c(C)c3c2c1`, the pIC50 is 4.41. The same measure for `Oc1ccc(CN2CCN(Cc3ccccc3)CC2)c2cccnc12`: 4.40; for `c1ccc2c(NCCc3c[nH]c4ccccc34)c3ccccc3nc2c1`: 4.12. With `COc1c(N2CCN(C(=S)Nc3ccccc3F)C(C)C2)c(F)cc2c(=O)c(C(=O)O)cn(C3CC3)c12` (centres undefined) the figure was 6.36; with `CCCCCCCCCCOC(=O)Cn1c(COc2ccccc2OC)[n+](C)c2ccccc21`, 4.60; with `CC(=O)NC(c1ccc2ccccc2c1)c1ccc2cccnc2c1O` (centres undefined), 4.16. The same measure for `O=C(/C=C/c1ccccc1Cl)c1ccccc(=O)c1O`: 4.42. On to `C1=C(CCNCc2ccccc2)CCCC1`, for which the negative-log IC50 (pIC50) was 5.08. Take `Cn1c(N/N=C/c2c[nH]c3ccccc23)nc2ccccc21`: the negative logarithm of the IC50 (pIC50) was 3.95. For `Oc1cccc(Nc2nc(NCC3CCCO3)c3ccccc3n2)c1` (centres undefined), the negative logarithm of the IC50 (pIC50) is 4.11. The same measure for `COc1ccc(C(=O)N/N=C/c2sc3ccccc3c2O)cc1`: 4.35. With `CC[C@H]1OC(=O)[C@H](C)[C@@H](O[C@H]2C[C@@](C)(OC)[C@@H](O)[C@H](C)O2)[C@H](C)[C@@H](O[C@@H]2O[C@H](C)C[C@H](N(C)C)[C@H]2O)[C@](C)(O)C[C@@H](C)[C@@H]2N[C@@H](COCCOC)O[C@H]([C@H]2C)[C@]1(C)O` the figure was 4.34; with `C/C(=N\NC(=O)c1ccc(Cl)cc1)c1ccccn1`, 4.32; with `O=C(O)/C(=C\C(=O)c1ccccc1)Nc1ccccc1`, 4.69. The same measure for `O=C(N/N=C/c1ccc([N+](=O)[O-])o1)C(O)c1ccccc1` (centres undefined): 4.88.

On to `CCCCCCCNC(=O)C1(CC2CC(c3cccc(Br)c3)=NO2)CCNCC1` (centres undefined), for which the negative-log IC50 (pIC50) is 4.34.

In the case of `CC[C@H]1OC(=O)[C@H](C)[C@@H](O[C@H]2C[C@@](C)(OC)[C@@H](O)[C@H](C)O2)[C@H](C)[C@@H](O[C@@H]2O[C@H](C)C[C@H](N(C)C)[C@H]2O)[C@](C)(OC)C[C@@H](C)C(=O)[C@H](C)[C@@H](O)[C@]1(C)O`, the pIC50 was 3.90. Turning to `C=C1c2cccc(O)c2C(O)=C2C(=O)[C@]3(O)C(O)=C(C(N)=O)C(=O)[C@@H](N(C)C)[C@@H]3[C@@H](O)[C@H]12`, the pIC50 is 6.42. Consider `CCN(CCC(=O)Nc1ccc(Br)c(C)c1)Cc1ccccc1`, for which the negative logarithm of the IC50 (pIC50) is 4.10.

As for `Clc1ccc(OCCCNCc2ccccc2)c(Br)c1`, the pIC50 is 4.36. Regarding `CCCCCC(CC(=O)NO)C(=O)NC(C(=O)N1CCCC1CO)C(C)C` (centres undefined), the pIC50 was 4.86.

With `Cc1cc(O)c2c(c1)C(=O)C13C(=C2O)C(=O)[C@H]2[C@@H](O)[C@@H]1[C@H]1[C@H](O)[C@@H]3C(=O)C3=C(O)c4c(O)cc(C)cc4C(=O)C312` (some centres undefined), the negative-log IC50 (pIC50) was 4.72. With `CCOC(=O)Cn1c(=N)n(CCOc2ccc3ccccc3c2)c2ccccc21` the figure was 4.10; with `CCN1CCCC1CNC(=O)C1CCN(Cc2nc(-c3cccc(Br)c3)oc2C)CC1` (centres undefined), 3.85; with `CCCCOc1ccc(NC2=NC3(CCCCC3)N=C(N)N2)cc1`, 4.70. For the molecule `CCCCn1c(NS(=O)(=O)c2ccccc2)c(S(=O)(=O)c2ccc(C)cc2)c2nc3ccccc3nc21`, the pIC50 was 3.94. Take `Cc1cccc(NC2=NC3(CCCCC3)N=C(N)N2)c1`: the pIC50 is 4.05.

Consider `CC(C)(C)/C(O)=C/c1nc2cc(Cl)ccc2oc1=O`, for which the pIC50 was 4.95. `C#CCOCCOCCOCCNc1nc(N2CCN(C(=O)CCCCCCCCCCNC(=O)[C@H](CCCCN)n3cc(CCO)nn3)CC2)nc(N2CCN(C(=O)CCCCCCCCCCNC(=O)[C@H](CCCN=C(N)N)n3cc(C[C@@H](C)CC)nn3)CC2)n1`: the pIC50 is 4.25.

For `O=C(N/N=C/c1ccccn1)c1cccs1`, the pIC50 was 4.37.
